Measured values as given in patent US20060020035A1, “Bone marrow protection with N-acetyl-L-cysteine” (Oregon Health & Science University, priority 2004, published 2006).
Like-named read-outs stand apart in the source and are kept apart here.

Legend:
[1] = tested on: total white cells, granulocytes, and platelets; assay: Example 2: L-NAC and D-NAC on rat blood counts after buthionine sulfoximine and tri-drug chemotherapy; type: in vivo; details: pretreatment; rats pretreated with buthionine sulfoximine, tri-drug chemotherapy
From the text: In the experiment shown in FIG. 4, rats were pretreated With buthionine sulfoximine to enhance the bone marrow toxicity of chemotherapy, and then treated with the tri-drug chemotherapy regimen with or without L-NAC or D-NAC.

[2] = tested on: total white cells, granulocytes, and platelets; assay: Major tumor study: blood counts after tri-drug chemotherapy with or without chemoprotection; type: in vivo, nude rats
Description: (§1) Osmotic Blood-Brain Barrier Disruption. Anesthesia was induced with 5% isoflurane and maintained with propofol (650 μg/kg/min). Mannitol (25%, 37° C.) was infused cephalad into the left internal carotid artery via a left external carotid catheter (Remsen et al., Anesthesia Analgesia 88:559-67, 1999).
(§2) Aortic Infusion Technique. The left internal carotid artery was temporarily occluded, and agents were administered retrograde to the descending aorta through a left external carotid catheter (Neuwelt et al., Cancer Res 61:7868-74, 2001).

[3] = N-Acetylcysteine clearance from rat blood (serum concentration, colorimetric kit and HPLC); type: in vivo, Long Evans rats
Description: N-Acetylcysteine Clearance. […] Blood samples (0.5 ml) were collected 5, 15, 30, 60, and 90 min after thiol administration, and serum was evaluated for N-acetylcysteine concentration. Serum N-acetylcysteine concentrations were measured using the Bioxytech GSH-400 colorimetric kit (Oxis Research, Portland, Oreg.). The colorimetric assay was validated by high-pressure liquid chromatography (HPLC) analysis of serum thiols for n=2 rats from groups B and D. Deproteinated serum samples were diluted in 160 mM KH2PO4, pH 3. Thiols were measured by electrochemical detection using a Waters radial compression module with 10-μm C18 column (Waters, Milford, Mass.), an ESA 5010 analytical cell, and an ESA 5100A coulochem detector (ESA Inc., Chelmsford, Mass.). Area under the curve was compared with known concentrations prepared in control sera.

in vivo = details: Long Evans, rat, maximum tolerated dose
Description: as §1, §2
N-Acetylcysteine Toxicity. N-Acetyl-L-cysteine (N-acetylcysteine, Mucomyst; Roxane Laboratories, Inc., Columbus, Ohio) was given by aortic infusion 30 min (n=7) or 60 min (n=10) before blood brain barrier disruption in normal Long Evans rats. Doses ranged from 400 to 1500 mg/kg in 3 ml infused at 0.6 ml/min. Rats were sacrificed 6 days after treatment or at signs of acute neurotoxicity (head tilt, circling, moribund).

platelets = details: 8 g/m^2 intravenous 2, 4, or 8 h after high-dose carboplatin; blood counts 6 days after chemotherapy
Description: Pilot study 2 evaluated various timing schemes for chemoprotection. Normal rats (n=54, six rats per group) were treated with a tri-drug chemotherapy regimen consisting of carboplatin (200 mg/m^2), melphalan (10 mg/m^2 Alkeran; GlaxoSmithKline, Uxbridge, Middlesex, UK), and etoposide phosphate (100 mg/m^2 Etopophos; Bristol-Meyers Squibb Co.), administered in the right carotid artery. […] For both pilot studies 1 and 2, blood counts were determined at 6 days after chemotherapy, in comparison with untreated controls. For blood count analysis, 0.5 ml of whole blood collected in EDTA microtubes was analyzed in duplicate on a Hemavet 850 (CDC Technologies Inc., Oxford, Conn.).

bone marrow = details: administered immediately after chemotherapy, alone or in combination with N-acetylcysteine (Neuwelt et al. 2001); cited from earlier work
[4] = previously reported (Neuwelt et al. 1998); cited from earlier work
[5] = 1000 mg/kg by aortic infusion, 60 min before chemotherapy

SMILES | bone marrow chemoprotective activity (total white cells, granulocytes, and platelets) [1] | protection for granulocytes [2, 5] | protection for white cells [2, 5] | platelet chemoprotection ([2]; N-acetylcysteine alone, 1000 mg/kg by aortic infusion, 60 min before chemotherapy) | maximum blood concentration ([3]; 1000 mg/kg intra-arterially, 5 min after infusion) | blood concentration at the time of chemotherapy delivery ([3]; 1000 mg/kg intra-arterially, 60 min after infusion) | half-life ([3]; Long Evans, rat, serum, other: intravenous or aortic infusion (all groups), all groups: 140-1200 mg/kg, intravenous or aortic infusion) | MTD at 6 days (in vivo; aortic infusion 30 min before blood-brain barrier disruption) | MTD at 6 days (in vivo; aortic infusion 60 min before blood-brain barrier disruption) | protection against chemotherapy-induced bone marrow suppression ([2]; sodium thiosulfate 8 g/m^2 4 and 8 h after chemotherapy, with or without N-acetylcysteine 1000 mg/kg 60 min before) | platelet chemoprotection (platelets) | bone marrow chemoprotective activity (bone marrow) | half-life [4]
CC(=O)N[C@H](CS)C(=O)O [D-NAC, N-acetyl-D-cysteine] | not bone marrow protective | – | – | – | – | – | – | – | – | – | – | – | –
CC(=O)N[C@@H](CS)C(=O)O [N-acetylcysteine, N-acetyl-L-cysteine] | significantly reduced chemotherapy toxicity | significantly protective | significantly protective | not significant | 11.2 ± 1.3 mM | 200 ± 100 µM | 9 to 11 min | 500 mg/kg | 1000 mg/kg | – | – | – | –
O=S([O-])([O-])=S.[Na+].[Na+] [sodium thiosulfate] | – | – | – | – | – | – | – | – | – | minimal protective effect | delaying sodium thiosulfate administration improved platelet chemoprotection | minimal bone marrow chemoprotective activity | 15 min
